# Measured values taken from paper PMC12084297, “Cytoplasmic connexin43-microtubule interactions promote glioblastoma stem-like cell maintenance and tumorigenicity” (Cell Death & Disease, 2025).
# Columns and labels:
# HEY1 mRNA = HEY1 mRNA by RT-qPCR, VTC-001 GSCs; type: cell-based, human; conditions: 50 μM, 24 h, RT-qPCR (as worded in text; no figure panel described)
# Description: (§1) RNA was extracted using the PureLink^TM RNA mini extraction kit (Thermo Fisher) and on-column DNA digestion was completed using PureLink^TM DNase according to the manufacturer’s instructions. RNA was reverse transcribed to generate cDNA using the iScript^TM Reverse Transcription SuperMix for RT-qPCR kit (Bio-Rad Laboratories). Real-time PCR was performed using the SYBR select Master Mix for CFX (Thermo Fisher) in hard-shell 96-well PCR plates (Bio-Rad Laboratories) on a CFX Connect Real Time System (Bio-Rad Laboratories). Primer sequences used were: hNOTCH1_Fwd: 5’-CGCACAAGGTGTCTTCCAG-3’; hNOTCH1_Rev: 5’-CGGCGTGTGAGTTGATGA-3’; hHES1_Fwd: 5’-GGCTGGAGAGGCGGCTAA-3’; hHES1_Rev: 5’-[…]-3’; hHEY1_Fwd: 5’-[…]-3’; hHEY1_Rev: 5’-[…]-3’.
# Cx43 [1] = experiment: Cx43 protein expression, immunoblot, VTC-037 GSCs; type: cell-based, human; conditions: 50 μM, 24 h
# Description: (§2) Cells were lysed in RIPA buffer (0.1% sodium dodecyl sulphate, 50 mM Tris pH 7.4, 150 mM NaCl, 1 mM EDTA, 1% Triton X-100, 1% deoxycholic acid, 200 μM Na3VO4, and 1 mM NaF) supplemented with Halt^TM Protease and Phosphatase Inhibitor Cocktail (Thermo Fisher). Lysates were sonicated prior to centrifugation at 4 °C for 20 min at 10,000 x g. Protein concentration was quantified using the DC protein assay (Bio-Rad Laboratories) and a standard curve obtained with increasing concentrations of Bovine Serum Albumin (BSA; Fisher Scientific). Protein samples were normalized to 20 μg total protein per lane and resolved by SDS-PAGE electrophoresis. 4X Bolt LDS sample buffer supplemented with 400 mM DTT (final concentration 1X Bolt LDS with 100 mM DTT) was added to samples before heating at 70 °C for 10 min. SDS-PAGE was run using NuPAGE Bis-Tris 4%–12% gradient gels (Thermo Fisher) with MES or MOPS running buffer according to manufacturer’s instructions. Spectra™ Multicolor Protein Ladder (Thermo Fisher) or Precision Plus Protein™ Kaleidoscope™ Prestained Protein Standards (Bio-Rad Laboratories) were included as protein ladders on the same gels. […] Membranes were imaged on a ChemiDoc™ imaging system, and analyzed with Image Lab software (Bio-Rad Laboratories). […]
# VTC-001 GSCs = experiment: MTS viability, VTC-001 GSCs; type: cell-based, human; conditions: 4 days
# Description: Cells were plated in 96-well plates (2000–5000 cells per well) and treated the following day with TMZ (10, 50, or 100 μM), antennapedia, JM2-scrambled, or JM2 (10, 50, or 100 μM). After 4 days, cell viability was monitored following addition of MTS reagent (Promega) according to manufacturer’s instructions. The absorbance at 490 nm was measured using a SpectraMax i3 or iD3 microplate reader (Molecular Devices). For the caspase 3/7 activity assay, cells were plated in 96-well plates (2000 cells per well) and treated with TMZ or peptides as described above. The activity of caspase 3/7 was measured after 48 h using the Caspase-Glo® 3/7 assay (Promega) following the manufacturer’s instructions. Fold change of caspase 3/7 activity was defined as the ratio of caspase 3/7 luminescence in treated cells compared to controls.
# Cx43 [2] = experiment: Cx43 protein expression, immunoblot, VTC-001 GSCs; type: cell-based, human; conditions: 50 μM, 24 h
# Description: as §2
# VTC-034 GSCs = experiment: Cellular uptake by NeutrAvidin-HRP blotting, VTC-034 GSCs; type: in vitro ADME, human
# Description: JM2 peptide includes the Cx43 C-terminal amino acids 231–245 that encompass the tubulin binding sequence (VFFKGVKDRVKGRSD). A control peptide, JM2-scrambled, was generated by random re-assembly of the same residues (GSDVFKRKFVDRKVG). Both peptides contain a 16-amino acid antennapedia internalization sequence (RQPKIWFPNRRKPWKK) and are N-terminally biotinylated. Lyophilized peptides were obtained from Peptron, Inc. (South Korea) with purity > 95%, reconstituted in water or in PBS at a concentration of 10 mM, and aliquots were stored at −80 °C freezer. Reconstituted peptides were added to the cell culture medium at different concentrations for times indicated. […]
# Cells were lysed in RIPA buffer (0.1% sodium dodecyl sulphate, 50 mM Tris pH 7.4, 150 mM NaCl, 1 mM EDTA, 1% Triton X-100, 1% deoxycholic acid, 200 μM Na3VO4, and 1 mM NaF) supplemented with Halt^TM Protease and Phosphatase Inhibitor Cocktail (Thermo Fisher). […] Protein concentration was quantified using the DC protein assay (Bio-Rad Laboratories) and a standard curve obtained with increasing concentrations of Bovine Serum Albumin (BSA; Fisher Scientific). […] Membranes were imaged on a ChemiDoc™ imaging system, and analyzed with Image Lab software (Bio-Rad Laboratories). […]
# Notch1 mRNA = Notch1 mRNA by RT-qPCR, VTC-037 GSCs; type: cell-based, human; conditions: 50 μM, 24 h
# Description: as §1
sequence,measurement,setting,value
VFFKGVKDRVKGRSD [JM2],Hey1 mRNA expression,HEY1 mRNA,significantly decreased the expression of Notch downstream targets Hes1 and Hey1 at the transcription level
same,Cx43 protein expression,Cx43 [1],without affecting Cx43 expression
same,GSC viability with JM2 alone in combination experiment (MTS),"VTC-001 GSCs; VTC-001 adherent GSCs, 100 μM",significantly decreased GSC viability
same,GSC survival (MTS),"VTC-001 GSCs; VTC-001 adherent GSCs, 10, 50 or 100 μM","significantly decreased VTC-001, VTC-034, and VTC-037 GSC survival when cultured as adherent cells in a dose-dependent manner"
same,Cx43 protein expression,Cx43 [2],without affecting Cx43 expression
same,Cellular uptake over time,"VTC-034 GSCs; 50 μM, different times up to 48 h, NeutrAvidin-HRP blot","apparent after 1 h, and sustained for 24 h before JM2 signal in GSCs decreased at 48 h"
same,Cellular uptake at increasing concentrations,"VTC-034 GSCs; different concentrations, 24 h, NeutrAvidin-HRP blot of biotin-tagged peptide",Cellular uptake of JM2 at increasing concentrations was confirmed
same,Notch1 mRNA level,Notch1 mRNA,not affected at the transcription level
